Measurements: patent publication US12478619B2, “Method of treatment with milsaperidone” (Vanda Pharmaceuticals Inc., priority 2023, dated 2025)

Tests used:
[1] = Study 3201: serum urate in patients with acute manic episodes associated with bipolar I disorder, iloperidone vs placebo, 4 weeks; type: in vivo, human; conditions: for Serum urate LS Mean Change (SE) from baseline: iloperidone 24 mg/day (12 mg bid) oral, ANCOVA
Protocol: A multi-center, randomized, double-blind, placebo-controlled study (“Study 3201”) is performed to evaluate the safety and efficacy of iloperidone for four (4) weeks in the treatment of patients with acute manic episodes associated with bipolar I disorder. Patients in the study are randomized to orally receive either iloperidone at a dose of 24 mg/day given in a divided dose as 12 mg twice daily (bid), or matched placebo.
These increases are illustrated in FIG. 3 using solid data points.
To test the hypothesis of altered urate serum levels in association with variants in the SLC2A9 gene, whole genome sequencing is conducted from blood samples, genotype status is obtained through standard data analysis, and linear models for SLC2A9 variants are performed on urate concentration in samples collected at baseline (corrected for PCs, age, sex) and samples collected at the end of the study (EOS).

[2] = human, in vivo
Protocol: A study is performed to evaluate the efficacy and safety of iloperidone compared with placebo and active control (ziprasidone) in subjects with acute schizophrenia (“Study 3101”). Patients are randomized to receive one of iloperidone at a dose of 24 mg/day given in a divided dose as 12 mg twice daily (bid), active comparator ziprasidone, or placebo. […] Uric acid results are converted to SI units using the conversion 1 mg/dL=59.5 μmol/L.
Results are provided in Table 7 below, including an increase of 28.0 μmol/L for iloperidone compared to a decrease of 4.2 μmol/L in placebo groups.
Patient genotypes are obtained via a commercial 500 k SNP Gene Chip Human Mapping Array. To test the hypothesis of altered urate serum levels in association with variants in SLC2A9, Linear models for SLC2A9 variants are performed on urate at baseline levels (corrected for PCs, age, sex) followed by samples collected at end of study (EOS).

Q: For COc1cc(C(C)=O)ccc1OCCCN1CCC(c2noc3cc(F)ccc23)CC1 [Iloperidone, 1-[4-[3-[4-(6-flouro-1,2-benzisoxazol-3-yl)-1-piperidinyl]propoxy]-3-methoxyphenyl]ethanone], which “Increase of serum urate levels” value ([1]; 24 mg/day given as 12 mg bid, value in mg/dL) is on record?
A: ~0.457 mg/dL

Q: What about the “Serum urate LS Mean Difference (95% CI), iloperidone vs placebo” value (shortened to “Serum urate LS Mean Difference (95% CI)”) ([1]; Day 7, 24 mg/day) of the same molecule?
A: 1.3 (−9.29, 11.88) μmol/L

Q: What about the “Serum urate LS Mean Change (SE) from baseline” value (from here on “Serum urate LS Mean Change (SE)”) ([1]; Day 7) of the same molecule?
A: −2.7 (−4.07), 199 μmol/L

Q: What about the “Serum urate LS Mean Difference (95% CI)” value ([1]; Day 14, 24 mg/day) of the same molecule?
A: 15.3 (4.50, 26.15) μmol/L

Q: What about the “Serum urate LS Mean Change (SE)” value ([1]; Day 14) of the same molecule?
A: 12.6 (−4.28), 173 μmol/L

Q: And the “Serum urate LS Mean Difference (95% CI)” value ([1]; Day 21, 24 mg/day)?
A: 21.0 (8.91, 33.18) μmol/L

Q: And the “Serum urate LS Mean Change (SE)” value ([1]; Day 21)?
A: 19.1 (−5.24), 157 μmol/L

Q: What about the “Serum urate LS Mean Change (SE)” value ([1]; Day 28 (endpoint)) of the same molecule?
A: 27.2 (−4.93), 142 μmol/L

Q: And the “Serum urate LS Mean Change (SE)” value ([1]; Day 28 (endpoint), listed as FANAPT® iloperidone)?
A: approximately 27.2 μmol/L

Q: And the “Serum urate LS Mean Change (SE)” value ([1]; Day 28 (endpoint), listed as iloperidone)?
A: 27.2 µmol/L

Q: And the “Increase in serum urate from baseline compared to placebo” value ([1]; Day 28, 24 mg/day)?
A: 4 fold

Q: What about the “Serum urate LS Mean Difference (95% CI)” value ([1]; Day 28, 24 mg/day) of the same molecule?
A: 27.1 (14.94, 39.20) μmol/L

Q: What about the “Change in serum urate from baseline (mean, observed cases)” value ([1]; Day 28, 24 mg/day, FIG. 3) of the same molecule?
A: 33.4 µmol/L

Q: And the “LS Mean Change (SE) in Serum Urate” value ([1]; Day 28, genotype AA)?
A: 25.74 (6.53), 73 μmol/L

Q: What about the “Serum urate LS Mean Difference (95% CI)” value ([1]; Day 28, genotype AA) of the same molecule?
A: 31.91 (14.82, 49) μmol/L

Q: And the “LS Mean Change (SE) in Serum Urate” value ([1]; Day 28, genotype AA, sex F)?
A: 25.48 (9.16), 34 μmol/L

Q: What about the “Serum urate LS Mean Difference (95% CI)” value ([1]; Day 28, genotype AA, sex F) of the same molecule?
A: 27.85 (2.93, 52.76) μmol/L

Q: And the “LS Mean Change (SE) in Serum Urate” value ([1]; Day 28, genotype AA, sex M)?
A: 28.89 (8.7), 39 μmol/L

Q: What about the “Serum urate LS Mean Difference (95% CI)” value ([1]; Day 28, genotype AA, sex M) of the same molecule?
A: 35.52 (12.82, 58.22) μmol/L

Q: What about the “LS Mean Change (SE) in Serum Urate” value ([1]; Day 28, genotype AG) of the same molecule?
A: 24.62 (7.61), 51 μmol/L

Q: And the “Serum urate LS Mean Difference (95% CI)” value ([1]; Day 28, genotype AG)?
A: 14.84 (−4.18, 33.86) μmol/L

Q: And the “LS Mean Change (SE) in Serum Urate” value ([1]; Day 28, genotype AG, sex F)?
A: 0.06 (10.14), 27 μmol/L

Q: What about the “Serum urate LS Mean Difference (95% CI)” value ([1]; Day 28, genotype AG, sex F) of the same molecule?
A: −7.9 (−34.82, 19.03) μmol/L

Q: What about the “LS Mean Change (SE) in Serum Urate” value ([1]; Day 28, genotype AG, sex M) of the same molecule?
A: 53.41 (10.84), 24 μmol/L

Q: And the “Serum urate LS Mean Difference (95% CI)” value ([1]; Day 28, genotype AG, sex M)?
A: 40.79 (14.61, 66.96) μmol/L

Q: And the “LS Mean Change (SE) in Serum Urate” value ([1]; Day 28, genotype GG)?
A: 40.09 (12.36), 18 μmol/L

Q: And the “Serum urate LS Mean Difference (95% CI)” value ([1]; Day 28, genotype GG)?
A: 56.95 (18.91, 94.99) μmol/L

Q: What about the “LS Mean Change (SE) in Serum Urate” value ([1]; Day 28, genotype GG, sex F) of the same molecule?
A: −0.19 (19.49), 7 μmol/L

Q: What about the “Serum urate LS Mean Difference (95% CI)” value ([1]; Day 28, genotype GG, sex F) of the same molecule?
A: 3.08 (−50.97, 57.13) μmol/L

Q: What about the “LS Mean Change (SE) in Serum Urate” value ([1]; Day 28, genotype GG, sex M) of the same molecule?
A: 65.61 (15.42), 11 μmol/L

Q: What about the “Serum urate LS Mean Difference (95% CI)” value ([1]; Day 28, genotype GG, sex M) of the same molecule?
A: 102.96 (48.93, 156.99) μmol/L

Q: And the “Mean Change (SE) from Baseline in Serum Urate, Observed Cases” value (shortened to “Mean Change (SE) … Observed Cases”) ([1]; Day 28, rs7442295 genotype AA, 24 mg/day)?
A: 30.5 (50.99), 73 μmol/L

Q: And the “Mean Change (SE) … Observed Cases” value ([1]; Day 28, rs7442295 genotype AG, 24 mg/day)?
A: 31.9 (59.39), 51 μmol/L

Q: And the “Mean Change (SE) … Observed Cases” value ([1]; Day 28, rs7442295 genotype GG, 24 mg/day)?
A: 49.1 (60.56), 18 μmol/L

Q: What about the “LS Mean Change (SE) in Serum Urate” value ([1]; EOS (last observation carried forward), genotype AA, sex F) of the same molecule?
A: 14.93 (8.59), 41 μmol/L

Q: And the “LS Mean Change (SE) in Serum Urate” value ([1]; EOS (last observation carried forward), genotype AA, sex M)?
A: 20.63 (7.29), 60 μmol/L

Q: And the “LS Mean Change (SE) in Serum Urate” value ([1]; EOS (last observation carried forward), genotype AG, sex F)?
A: −2.27 (8.75), 39 μmol/L

Q: What about the “LS Mean Change (SE) in Serum Urate” value ([1]; EOS (last observation carried forward), genotype AG, sex M) of the same molecule?
A: 32.96 (8.74), 41 μmol/L

Q: What about the “LS Mean Change (SE) in Serum Urate” value ([1]; EOS (last observation carried forward), genotype GG, sex F) of the same molecule?
A: −6.03 (20.3), 7 μmol/L

Q: And the “LS Mean Change (SE) in Serum Urate” value ([1]; EOS (last observation carried forward), genotype GG, sex M)?
A: 67.03 (15.38), 12 μmol/L

Q: And the “Percentage of patients with serum urate above ULN” value (shortened to “Percentage of patients”) ([1]; EOS, Female (ULN 394 μmol/l), rs7442295 AA)?
A: 15.0%

Q: What about the “Percentage of patients” value ([1]; EOS, Female (ULN 394 μmol/l), rs7442295 AG) of the same molecule?
A: 8.1%

Q: What about the “Percentage of patients” value ([1]; EOS, Female (ULN 394 μmol/l), rs7442295 GG) of the same molecule?
A: 0.0%

Q: What about the “Percentage of patients” value ([1]; EOS, Male (ULN 453 μmol/l), rs7442295 AA) of the same molecule?
A: 12.3%

Q: What about the “Percentage of patients” value ([1]; EOS, Male (ULN 453 μmol/l), rs7442295 AG) of the same molecule?
A: 13.5%

Q: And the “Percentage of patients” value ([1]; EOS, Male (ULN 453 μmol/l), rs7442295 GG)?
A: 33.3%

Q: What about the “Percentage of patients” value ([1]; EOS, Male (ULN 453 μmol/l), rs7442295 GG, listed as iloperidone) of the same molecule?
A: about 33.3%

Q: And the “LS Mean Change (SE) in Serum Urate” value ([1]; EOS, genotype AA)?
A: 16.73 (5.66), 101 μmol/L

Q: What about the “Serum urate LS Mean Difference (95% CI)” value ([1]; EOS, genotype AA) of the same molecule?
A: 18.23 (3.19, 33.28) μmol/L

Q: What about the “Serum urate LS Mean Difference (95% CI)” value ([1]; EOS, genotype AA, sex F) of the same molecule?
A: 15.97 (−6.71, 38.64) μmol/L

Q: What about the “Serum urate LS Mean Difference (95% CI)” value ([1]; EOS, genotype AA, sex M) of the same molecule?
A: 18.99 (−0.89, 38.86) μmol/L

Q: And the “LS Mean Change (SE) in Serum Urate” value ([1]; EOS, genotype AG)?
A: 15.05 (6.29), 80 μmol/L

Q: What about the “Serum urate LS Mean Difference (95% CI)” value ([1]; EOS, genotype AG) of the same molecule?
A: 8.61 (−8.27, 25.48) μmol/L

Q: And the “Serum urate LS Mean Difference (95% CI)” value ([1]; EOS, genotype AG, sex F)?
A: −1.4 (−25.85, 23.06) μmol/L

Q: What about the “Serum urate LS Mean Difference (95% CI)” value ([1]; EOS, genotype AG, sex M) of the same molecule?
A: 19.58 (−2.91, 42.08) μmol/L

Q: What about the “LS Mean Change (SE) in Serum Urate” value ([1]; EOS, genotype GG) of the same molecule?
A: 40.4 (12.41), 19 μmol/L

Q: What about the “Serum urate LS Mean Difference (95% CI)” value ([1]; EOS, genotype GG) of the same molecule?
A: 55.4 (18.68, 92.13) μmol/L

Q: And the “Serum urate LS Mean Difference (95% CI)” value ([1]; EOS, genotype GG, sex F)?
A: 4.54 (−50.43, 59.52) μmol/L

Q: What about the “Serum urate LS Mean Difference (95% CI)” value ([1]; EOS, genotype GG, sex M) of the same molecule?
A: 88.45 (38.7, 138.21) μmol/L

Q: What about the “Increases in serum urate levels in iloperidone-treated patients homozygous for rs7442295 (G)” value ([1]; GG genotype compared with other iloperidone-treated patients) of the same molecule?
A: nearly twice as large

Q: What about the “Change in SUC relative to baseline at EOS, rs7442295-G/G vs A/G or A/A” value ([1]; iloperidone-treated patients, FIG. 9, panova<0.0001) of the same molecule?
A: significantly greater change from baseline

Q: What about the “Increase in percentage of male rs7442295-G/G individuals with high urate levels, baseline to end of study” value ([1]; male, GG, from about 8.3% at baseline) of the same molecule?
A: approximately 4 fold

Q: For O=C1Cc2cc(CCN3CCN(c4nsc5ccccc45)CC3)c(Cl)cc2N1 [ziprasidone], which “Serum urate LS mean change from baseline to endpoint, ziprasidone treatment arm” value [2] is on record?
A: 13.1 µmol/L
